The source of these data is patent publication US20240092784A1, “CONDENSED HETEROCYCLIC COMPOUND” (NISSAN CHEMICAL CORPORATION, priority 2020, published 2024).

Where a name gives a salt, the structure may show the parent alone.

human SPR, sequence (P35270 whole entry): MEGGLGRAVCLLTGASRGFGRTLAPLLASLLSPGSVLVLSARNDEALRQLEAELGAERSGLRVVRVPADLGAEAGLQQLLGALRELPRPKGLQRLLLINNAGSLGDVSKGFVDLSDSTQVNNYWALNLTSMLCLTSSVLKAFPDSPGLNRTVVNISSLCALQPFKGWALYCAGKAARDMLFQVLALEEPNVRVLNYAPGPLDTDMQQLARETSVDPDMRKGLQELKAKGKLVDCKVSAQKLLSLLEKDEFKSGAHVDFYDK

The target of the first experiment is human SPR (Homo sapiens (Human), UniProt P35270). Description: Evaluation Example 2: Measurement of human SPR inhibitory activity (seven concentrations, sepiapterin absorbance at 420 nm). The class given is biochemical. The note with it: Evaluation Example 2, seven concentrations 0.14 nM to 100 nM, 240 minutes at room temperature, read-out: IC50. The procedure, abridged:
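Reactions ran 240 min at room temperature in 100 mM Tris-HCl pH 7.5 with 0.01% BSA. They contained tag-cleaved, E. coli-expressed full-length human SPR (diluted to 150 ng/mL), seven compound concentrations from 0.14 to 100 nM, and sepiapterin/NADPH added as a 120 μM/160 μM solution. Inhibition was calculated from sepiapterin absorbance at 420 nm.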
`COCC1CCN(C(=O)/C=C/c2cnn3c(O)c(C(=O)NC4CC4)c(=O)n(CC(C)C)c23)CC1` [compound 475, (E)-N-Cyclopropyl-7-hydroxy-4-isobutyl-3-(3-(4-(methoxymethyl)piperidin-1-yl)-3-oxoprop-1-en-1-yl)-5-oxo-4,5-dihydropyrazolo[1,5-a]pyrimidine-6-carboxamide]: the IC50 worked out at 0.85 nM.
Same read-out and setting: with `CC(C)Cn1c(=O)c(C(=O)N[C@@H](C)C(F)(F)F)c(O)n2ncc(/C=C/C(=O)N3CCOCC3)c12` [compound 545, (S,E)-7-Hydroxy-4-isobutyl-3-(3-morpholino-3-oxoprop-1-en-1-yl)-5-oxo-N-(1,1,1-trifluoropropan-2-yl)-4,5-dihydropyrazolo[1,5-a]pyrimidine-6-carboxamide] the figure was 0.66 nM; with `Cc1nn2c(O)c(C(=O)NC3CC3)c(=O)n(CC(C)C)c2c1/C=C/C(=O)N1CCOC[C@@H]1C` [compound 568, (S,E)-N-Cyclopropyl-7-hydroxy-4-isobutyl-2-methyl-3-(3-(3-methylmorpholino)-3-oxoprop-1-en-1-yl)-5-oxo-4,5-dihydropyrazolo[1,5-a]pyrimidine-6-carboxamide], 0.68 nM; with `CC(C)Cn1c(=O)c(C(=O)NC2CC2)c(O)n2ncc(/C=C/C(=O)N3CCC(C)(C)C3)c12` [compound 479, (E)-N-Cyclopropyl-3-(3-(3,3-dimethylpyrrolidin-1-yl)-3-oxoprop-1-en-1-yl)-7-hydroxy-4-isobutyl-5-oxo-4,5-dihydropyrazolo[1,5-a]pyrimidine-6-carboxamide], 1.05 nM.
As to `CC(C)Cn1c(=O)c(C(=O)NC2CC2)c(O)n2ncc(C(=O)NCc3ncccc3F)c12` [Synthesis Example 235, N6-Cyclopropyl-N3-((3-fluoropyridin-2-yl)methyl)-7-hydroxy-4-isobutyl-5-oxo-4,5-dihydropyrazolo[1,5-a]pyrimidine-3,6-dicarboxamide], the IC50 worked out at 0.9 nM.
On to `CC(C)(C)Cn1c(=O)c(C(=O)NC2CC2)c(O)n2nc(Nc3cncc(C(N)=O)n3)cc12` [Synthesis Example 345, 2-((6-Carbamoylpyrazin-2-yl)amino)-N-cyclopropyl-7-hydroxy-4-neopentyl-5-oxo-4,5-dihydropyrazolo[1,5-a]pyrimidine-6-carboxamide], for which the IC50 is 0.92 nM.
Regarding `CC(C)(C)Cn1c(=O)c(C(=O)NC2CC2)c(O)n2nc(-c3cccnc3C(F)(F)F)cc12` [Synthesis Example 284, N-Cyclopropyl-7-hydroxy-4-neopentyl-5-oxo-2-(2-(trifluoromethyl)pyridin-3-yl)-4,5-dihydropyrazolo[1,5-a]pyrimidine-6-carboxamide], the IC50 is 3.93 nM.
For the molecule `CC(C)(C)Cn1c(=O)c(C(=O)NC2CC2)c(O)n2nc(-c3cnccc3C#N)cc12` [Synthesis Example 294, 2-(4-Cyanopyridin-3-yl)-N-cyclopropyl-7-hydroxy-4-neopentyl-5-oxo-4,5-dihydropyrazolo[1,5-a]pyrimidine-6-carboxamide], the IC50 came to 2.26 nM.
In the case of `CC(C)(C)Cn1c(=O)c(C(=O)NC2CC2)c(O)n2nc(NC(N)=O)c(/C=C/C(=O)N3CCOCC3)c12` [Synthesis Example 424, (E)-N-Cyclopropyl-7-hydroxy-3-(3-morpholino-3-oxoprop-1-en-1-yl)-4-neopentyl-5-oxo-2-ureido-4,5-dihydropyrazolo[1,5-a]pyrimidine-6-carboxamide], the IC50 stood at 0.67 nM.
For the molecule `CC(C)Cn1c(=O)c(C(=O)N[C@@H](C)C(F)(F)F)c(O)n2nc(N)c(/C=C/C(=O)N3CCC(F)(F)CC3)c12` [Synthesis Example 421, (S,E)-2-Amino-3-(3-(4,4-difluoropiperidin-1-yl)-3-oxoprop-1-en-1-yl)-7-hydroxy-4-isobutyl-5-oxo-N-(1,1,1-trifluoropropan-2-yl)-4,5-dihydropyrazolo[1,5-a]pyrimidine-6-carboxamide hydrochloride], the IC50 is 0.77 nM.
On to `Cc1nn2c(O)c(C(=O)NC3CC3)c(=O)n(CC(C)C)c2c1/C=C/C(=O)N1C[C@H](C)OC[C@@H]1C` [Synthesis Example 645, N-Cyclopropyl-3-((E)-3-((2S,5S)-2,5-dimethylmorpholino)-3-oxoprop-1-en-1-yl)-7-hydroxy-4-isobutyl-2-methyl-5-oxo-4,5-dihydropyrazolo[1,5-a]pyrimidine-6-carboxamide], for which the IC50 was found to be 0.8 nM.
Take `Cn1cc(-c2cc3n(CC(C)(C)C)c(=O)c(C(=O)NC4CC4)c(O)n3n2)c(C(N)=O)n1` [Synthesis Example 310, 2-(3-Carbamoyl-1-methyl-1H-pyrazol-4-yl)-N-cyclopropyl-7-hydroxy-4-neopentyl-5-oxo-4,5-dihydropyrazolo[1,5-a]pyrimidine-6-carboxamide]: the IC50 was found to be 2.47 nM.
Same read-out and setting: for `CC(C)Cn1c(=O)c(C(=O)NC2CC2)c(O)n2nc(N)c(/C=C/C(=O)N3C4CCCC3COC4)c12` [Synthesis Example 423, (E)-3-(3-(3-Oxa-9-azabicyclo[3.3.1]nonan-9-yl)-3-oxoprop-1-en-1-yl)-2-amino-N-cyclopropyl-7-hydroxy-4-isobutyl-5-oxo-4,5-dihydropyrazolo[1,5-a]pyrimidine-6-carboxamide hydrochloride] the value was 0.71 nM; for `CC(C)Cn1c(=O)c(C(=O)NC2CC2)c(O)n2ncc(/C=C/C(=O)N3CC[C@@H](C#N)C3)c12` [compound 483, (R,E)-3-(3-(3-Cyanopyrrolidin-1-yl)-3-oxoprop-1-en-1-yl)-N-cyclopropyl-7-hydroxy-4-isobutyl-5-oxo-4,5-dihydropyrazolo[1,5-a]pyrimidine-6-carboxamide], 0.69 nM.
As for `CC(C)Cn1c(=O)c(C(=O)NC2CC2)c(O)n2ncc(/C=C/C(=O)N3[C@H](C)COC[C@@H]3C)c12` [compound 557, N-Cyclopropyl-3-((E)-3-(cis-3,5-dimethylmorpholino)-3-oxoprop-1-en-1-yl)-7-hydroxy-4-isobutyl-5-oxo-4,5-dihydropyrazolo[1,5-a]pyrimidine-6-carboxamide], the IC50 came out at 0.81 nM.
Take `CC(C)Cn1c(=O)c(C(=O)NC2CC2)c(O)n2ncc(/C=C/C(=O)NCC(C)(C)O)c12` [compound 507, (E)-N-Cyclopropyl-7-hydroxy-3-(3-((2-hydroxy-2-methylpropyl)amino)-3-oxoprop-1-en-1-yl)-4-isobutyl-5-oxo-4,5-dihydropyrazolo[1,5-a]pyrimidine-6-carboxamide]: the IC50 came out at 1.13 nM.
For the molecule `CC(C)Cn1c(=O)c(C(=O)NC2CC2)c(O)n2ncc(/C=C/C(=O)N3CCCCO3)c12` [compound 535, (E)-3-(3-(1,2-Oxazinan-2-yl)-3-oxoprop-1-en-1-yl)-N-cyclopropyl-7-hydroxy-4-isobutyl-5-oxo-4,5-dihydropyrazolo[1,5-a]pyrimidine-6-carboxamide], the IC50 amounted to 0.92 nM.
Same read-out and setting: with `CC(C)Cn1c(=O)c(C(=O)NC2CC2)c(O)n2nc(N)c(/C=C/C(=O)N3CCOC[C@H]3C)c12` [Synthesis Example 418, (R,E)-2-Amino-N-cyclopropyl-7-hydroxy-4-isobutyl-3-(3-(3-methylmorpholino)-3-oxoprop-1-en-1-yl)-5-oxo-4,5-dihydropyrazolo[1,5-a]pyrimidine-6-carboxamide hydrochloride] the figure was 0.61 nM.
`CC(C)Cn1c(=O)c(C(=O)NC2CC2)c(O)n2ncc(/C=C/C(=O)N3CCC[C@H]3C(C)C)c12` [compound 600, (S,E)-N-Cyclopropyl-7-hydroxy-4-isobutyl-3-(3-(2-isopropylpyrrolidin-1-yl)-3-oxoprop-1-en-1-yl)-5-oxo-4,5-dihydropyrazolo[1,5-a]pyrimidine-6-carboxamide]: the IC50 turned out to be 1.47 nM.
The same measure, in the same setting: for `Cc1cc2n(CC(C)(C)C)c(=O)c(C(=O)NC3CC3)c(O)n2n1` [Synthesis Example 320, N-Cyclopropyl-7-hydroxy-2-methyl-4-neopentyl-5-oxo-4,5-dihydropyrazolo[1,5-a]pyrimidine-6-carboxamide] the value was 1.69 nM.
Consider `CC(C)Cn1c(=O)c(C(=O)NC2CC2)c(O)n2ncc(/C=C/C(=O)N3CCC[C@@H]3C(N)=O)c12` [compound 487, (R,E)-3-(3-(2-Carbamoylpyrrolidin-1-yl)-3-oxoprop-1-en-1-yl)-N-cyclopropyl-7-hydroxy-4-isobutyl-5-oxo-4,5-dihydropyrazolo[1,5-a]pyrimidine-6-carboxamide], for which the IC50 was found to be 0.97 nM.
Regarding `C=Cc1c(N)nn2c(O)c(C(=O)NC3CC3)c(=O)n(CC(C)C)c12` [Synthesis Example 435, 2-Amino-N-cyclopropyl-7-hydroxy-4-isobutyl-5-oxo-3-vinyl-4,5-dihydropyrazolo[1,5-a]pyrimidine-6-carboxamide], the IC50 is 1.46 nM.

Still in this experiment, the particulars now being: sepiapterin absorbance, Table 41, read-out: concentration at 50% inhibition of human SPR (IC50).
On to `CC(C)Cn1c(=O)c(C(=O)NC2CC2)c(O)n2ncc(/C=C/C(=O)N3CCOc4cnccc43)c12` [Synthesis Example 728, (E)-N-Cyclopropyl-3-(3-(2,3-dihydro-1H-pyrido[3,4-b][1,4]oxazin-1-yl)-3-oxoprop-1-en-1-yl)-7-hydroxy-4-isobutyl-5-oxo-4,5-dihydropyrazolo[1,5-a]pyrimidine-6-carboxamide], for which the IC50 was determined as 1.07 nM.
Same read-out and setting: for `CC(C)Cn1c(=O)c(C(=O)NC2CC2)c(O)n2ncc(/C=C/C(=O)N3CCC[C@H]3C(C)(C)O)c12` [Synthesis Example 730, (S,E)-N-Cyclopropyl-7-hydroxy-3-(3-(2-(2-hydroxypropan-2-yl)pyrrolidin-1-yl)-3-oxoprop-1-en-1-yl)-4-isobutyl-5-oxo-4,5-dihydropyrazolo[1,5-a]pyrimidine-6-carboxamide] the value was 1.26 nM; for `Cc1nn2c(O)c(C(=O)NC3CC3)c(=O)n(CC(C)(C)C)c2c1/C=C/C(=O)N(C)CC#N` [Synthesis Example 690, (E)-3-(3-((Cyanomethyl)(methyl)amino)-3-oxoprop-1-en-1-yl)-N-cyclopropyl-7-hydroxy-2-methyl-4-neopentyl-5-oxo-4,5-dihydropyrazolo[1,5-a]pyrimidine-6-carboxamide], 1.46 nM.
